Data set [1] is described as follows: Pharmacokinetics of the compounds in SD rats (Example 36). The data set is classed as in vivo. The following applies: SD rat plasma. As to the method:
Preparation of compound stock solution: An appropriate amount of compound solid powder was be weighed and added in a certain amount of DMSO, and vortex ultrasound to obtain a 10 mg/mL stock solution.
Preparation of test compound for gavage: respectively taking an appropriate amount of the compound stock solution, adding a certain amount of Solutol HS15 solution, vortexing for 1 minute, then adding a certain amount of physiological saline, and fully mixing to obtain a 1 mg/mL solution.
Preparation of test compound for intravenous injection: respectively taking an appropriate amount of the compound stock solution, adding a certain amount of Solutol HS15 solution, vortexing for 1 minute, then adding a certain amount of physiological saline, and fully mixing until uniform, so as to obtain a 0.5 mg/mL solution.
The experimental animals were fasted overnight before gavage administration, and were given food 4 hours after administration, with free access to water. Each test compound was divided into two groups, namely intravenous administration group and oral administration group.
Blood samples (150 μL/sample) were collected from the jugular vein of SD rats before administration and at 5 min (only intravenous administration group), 15 min, 30 min, 1 h, 2 h, 4 h, 8 h and 24 h after administration, respectively. The samples were placed in centrifuge tubes containing anticoagulant sodium heparin and centrifuged at 4° C., 2000 g for 5 minutes to separate plasma. The plasma samples were analyzed by LC/MS/MS to detect the concentration of each test compound.
Non-compartmental model-related parameters were calculated by WinNonlin® Professional software.

For data set [2], the system named is potassium oxonate-induced hyperuricemic rats. Nature of the data set: Serum uric acid in potassium oxonate-induced hyperuricemic rats, 3 days of gavage (Example 35). The data set is classed as in vivo, SD rats. The settings on record: for serum uric acid level compared with the model group at the same time point: 2 mg/kg for 3 days; for Uric acid 0 h / Uric acid 1 h / Uric acid 3 h / Uric acid 5 h: serum, 2 mg/kg gavage for 3 days, mean ± SD; for Uric acid 0 h: day 3, 0 h, before potassium oxonate injection, n=6; for Uric acid 1 h: day 3, 1 h after potassium oxonate injection; for Uric acid 3 h: day 3, 3 h after potassium oxonate injection; for Uric acid 5 h: day 3, 5 h after potassium oxonate injection. As to the method:
Compound 13 was a light yellow powder, and compounds 38 and 41 are pseudo-white powders, which are triturated with 0.5% CMC-Na just prior to use to prepare a 0.4 mg/mL suspension for gavage.
36 male SD rats weighed approximately 220-240 g after one week of adaptation. […] The drugs in each group were prepared into a corresponding concentration suspension, and the administration volume was 0.5 mL/100 g.
After the rats in each group were purchased and adapted to feeding, they were fasted for 12 h, and, intraperitoneally, injected with⋅ potassium⋅ gxonate at a⋅dose of 300 mg/kg to establish the model. 0.5 h after modeling, each test drug group was gavaged once. The drug was administered continuously for 3 days. On day 3, blood samples was collected from the retro-orbital venous plexus before and 1, 3, and 5 h after potassium oxonate injection. The samples were centrifuged at 3500 rpm for 10 min, and 30 μL of serum was collected to determine the uric acid level at each time point.
The measurement data of each test were expressed as (mean)±standard deviation). The comparison between groups used ANOVA-Dunnett T test to examine the significance. P<0.05 was used as the significance index, and P<0.01 was used as the extremely significant index.

The mark [3] stands for this setting: Intravenous injection administration - 1 mg/kg.
The mark [4] stands for this setting: po, Gavage administration - 10 mg/kg.
[5] abbreviates: 1, 3, and 5 h after modeling, P<0.01 or P<0.05.

Molecules are shown by their SMILES. Structures can show the parent of a compound that is named as a salt.

The AUC(0-inf) is total exposure, with the tail of the curve extrapolated. For orientation: Cmax means the maximum level reached in the sampled fluid or tissue. In general, MRT inf refers to a mean duration of stay, worked out from the concentration-time curve. In general, Tmax refers to the time at which the peak concentration occurs. What is called half-life is how long it takes for the measured level to halve. `CC(=O)OCCOC(=O)c1ccnc(-c2ccc3c(c2)c(C#N)nn3C(C)C)c1` [Compound 28, (2-acetoxy)ethyl 2-(3-cyano-1-isopropyl-1H-indazol-5-yl) isonicotinate]: in data set [1] (setting [3]), the total exposure AUC(0-inf) came out at 947 ng·h/mL, the maximum concentration (Cmax) is 712 ng/mL, the MRT inf came out at 4.31 h and the Tmax turned out to be 0.083 h. Further, the half-life in data set [1] (setting [3]) was 8.21 h. For the same molecule, in data set [1] (setting [4]), the area under the curve AUC(0-inf) was 15800 ng·h/mL, the peak concentration (Cmax) was found to be 3150 ng/mL, the mean residence time MRT inf was 3.55 h and the time to peak (Tmax) is 2.17 h. In data set [1] (setting [4]), this molecule showed a half-life of 2.93 h.
As for `CC(C)=CCC/C(C)=C/CC/C(C)=C/COC(=O)c1cnn(-c2ccc3c(c2)c(C#N)nn3C(C)C)c1` [Compound 13, (3,7,11-trimethyldodecyl-2,6,10-trien-1-yl) 1-(3-cyano-1-isopropyl-1H-indazol-5-yl)-1H-pyrazole-4-carboxylate], the “serum uric acid level compared with the model group at the same time point” value in data set [2] (setting [5]) is “significantly reduce”. For the same molecule, in data set [2], the “Uric acid 0 h” value is 40.7 ± 4.4 µmol/L, the “Uric acid 1 h” value was found to be 42.1 ± 10.6 µmol/L, the “Uric acid 3 h” value was 66.0 ± 10.7 µmol/L and the “Uric acid 5 h” value was 75.0 ± 7.1 µmol/L.
Regarding `CCOC(=O)OC(C)OC(=O)c1ccnc(-c2ccc3c(c2)c(C#N)nn3C(C)C)c1` (stereo not drawn) [Compound 26, ethyl {1-[(ethoxycarbonyl)oxy]} 2-(3-cyano-1-isopropyl-1H-indazol-5-yl) isonicotinate], in data set [1] (setting [3]), the AUC(0-inf) is 1290 ng·h/mL, the Cmax stood at 1970 ng/mL, the MRT inf is 2.47 h and the time to peak (Tmax) is 0.083 h. Also, the half-life in data set [1] (setting [3]) is 7.11 h. In data set [1] (setting [4]), the AUC(0-inf) was 31000 ng·h/mL, the peak level (Cmax) was 5520 ng/mL, the MRT inf turned out to be 3.57 h and the time of peak concentration (Tmax) worked out at 0.917 h. For the same molecule, in data set [1] (setting [4]), the half-life was 2.52 h.
For `CC(C)OC(=O)c1cnn(-c2ccc3c(c2)c(C#N)nn3C(C)C)c1` [Compound 7, isopropyl 1-(3-cyano-1-isopropyl-1H-indazol-5-yl)-1H-pyrazole-4-carboxylate], in data set [1] (setting [3]), the AUC(0-inf) came to 674 ng·h/mL, the concentration peaked (Cmax) at 338 ng/mL, the MRT inf came out at 7.65 h and the Tmax was determined as 0.194 h. In addition, the half-life in data set [1] (setting [3]) is 8.6 h. Moreover, in data set [1] (setting [4]), the AUC(0-inf) is 12900 ng·h/mL, the Cmax was 2920 ng/mL, the MRT inf was 3.84 h and the Tmax was determined as 0.5 h. The half-life in data set [1] (setting [4]) is 3.27 h.
Regarding `COC(=O)c1ccnc(-c2ccc3c(c2)c(C#N)nn3C(C)C)c1` [Compound 19, methyl 2-(3-cyano-1-isopropyl-1H-indazol-5-yl) isonicotinate], in data set [1] (setting [3]), the area under the curve AUC(0-inf) is 776 ng·h/mL, the concentration peaked (Cmax) at 518 ng/mL, the mean residence time MRT inf is 6.46 h and the Tmax came to 0.25 h. The half-life in data set [1] (setting [3]) is 8.78 h. Further, in data set [1] (setting [4]), the AUC(0-inf) came out at 25300 ng·h/mL, the concentration peaked (Cmax) at 6170 ng/mL, the mean residence time (MRT inf) turned out to be 2.86 h and the Tmax was 0.667 h. Besides, in data set [1] (setting [4]), the half-life was 2.33 h.
In the case of `COCCOC(=O)c1ccnc(-c2ccc3c(c2)c(C#N)nn3C(C)C)c1` [Compound 31, (2-methoxy)ethyl 2-(3-cyano-1-isopropyl-1H-indazol-5-yl) isonicotinate hydrobromide], in data set [1] (setting [3]), the total exposure AUC(0-inf) was 1010 ng·h/mL, the highest level (Cmax) was 904 ng/mL, the MRT inf turned out to be 4.75 h and the time to peak (Tmax) worked out at 0.083 h. Besides, the half-life in data set [1] (setting [3]) is 9.03 h. Further, in data set [1] (setting [4]), the AUC(0-inf) was 20900 ng·h/mL, the Cmax was 4310 ng/mL, the MRT inf turned out to be 3.39 h and the time to peak (Tmax) was 2 h. The molecule further had a half-life in data set [1] (setting [4]) of 2.75 h.
For `CC(C)n1nc(C#N)c2cc(-n3cc(C(=O)Oc4cccc(CO[N+](=O)[O-])c4)cn3)ccc21` [Compound 41, [3-(nitrooxy)methyl]phenyl 1-(3-cyano-1-isopropyl-1H-indazol-5-yl)-1H-pyrazole-4-carboxylate], the “serum uric acid level compared with the model group at the same time point” value in data set [2] (3 and 5 h after modeling, P<0.01) is “significantly reduce”. In data set [2], the “Uric acid 0 h” value was 50.6 ± 7.3 µmol/L, the “Uric acid 1 h” value amounted to 74.1 ± 16.5 µmol/L, the “Uric acid 3 h” value was 72.2 ± 20.2 µmol/L and the “Uric acid 5 h” value came to 55.4 ± 14.9 µmol/L.
On to `CC(C)n1nc(C#N)c2cc(-n3cc(C(=O)OCCCCO[N+](=O)[O-])cn3)ccc21` [Compound 38, [4-(nitrooxy)] butyl 1-(3-cyano-1-isopropyl-1H-indazol-5-yl)-1H-pyrazole-4-carboxylate], for which, in data set [2] (setting [5]), the “serum uric acid level compared with the model group at the same time point” value is listed as “significantly reduce”. In data set [2], the “Uric acid 0 h” value is 51.7 ± 5.9 µmol/L, the “Uric acid 1 h” value worked out at 67.5 ± 19.3 µmol/L, the “Uric acid 3 h” value is 69.0 ± 24.7 µmol/L and the “Uric acid 5 h” value came out at 51.7 ± 6.7 µmol/L.
Regarding `CCOC(=O)c1cnn(-c2ccc3c(c2)c(C#N)nn3C(C)C)c1` [Compound 2, ethyl 1-(3-cyano-1-isopropyl-1H-indazol-5-yl)-1H-pyrazole-4-carboxylate], in data set [1] (setting [3]), the area under the curve AUC(0-inf) was 1400 ng·h/mL, the highest level (Cmax) was 843 ng/mL, the MRT inf was 5.05 h and the time to peak (Tmax) is 0.139 h. The half-life in data set [1] (setting [3]) is 6.12 h. Also, in data set [1] (setting [4]), the AUC(0-inf) stood at 30100 ng·h/mL, the peak level (Cmax) was 4780 ng/mL, the MRT inf was determined as 4.78 h and the Tmax was determined as 0.667 h. The molecule also had a half-life in data set [1] (setting [4]) of 2.91 h.
With `CC(C)n1nc(C#N)c2cc(-c3cc(C(=O)Oc4cccc(CO[N+](=O)[O-])c4)ccn3)ccc21` [Compound 42, [3-(nitrooxy)methyl]phenyl 2-(3-cyano-1-isopropyl-1H-indazol-5-yl) isonicotinate], in data set [1] (setting [3]), the total exposure AUC(0-inf) amounted to 767 ng·h/mL, the maximum concentration (Cmax) is 2.82 ng/mL, the mean residence time (MRT inf) stood at 3.37 h and the Tmax amounted to 0.083 h. In data set [1] (setting [3]), this molecule showed a half-life of 6.44 h. For the same molecule, in data set [1] (setting [4]), the area under the curve AUC(0-inf) came out at 8640 ng·h/mL, the highest level (Cmax) was 1510 ng/mL, the mean residence time (MRT inf) amounted to 4.12 h and the time to peak (Tmax) was determined as 1.58 h. In data set [1] (setting [4]), the half-life was 2.91 h.
As to `CC(C)n1nc(C#N)c2cc(-c3cc(C(=O)OCCCCO[N+](=O)[O-])ccn3)ccc21` [Compound 39, [4-(nitrooxy)] butyl 2-(3-cyano-1-isopropyl-1H-indazol-5-yl) isonicotinate], in data set [1] (setting [3]), the AUC(0-inf) came out at 886 ng·h/mL, the Cmax is 714 ng/mL, the MRT inf is 7.16 h and the Tmax was 0.083 h. The half-life in data set [1] (setting [3]) is 9.92 h. For the same molecule, in data set [1] (setting [4]), the total exposure AUC(0-inf) was 18300 ng·h/mL, the highest level (Cmax) was 3900 ng/mL, the mean residence time (MRT inf) was 3.9 h and the time of peak concentration (Tmax) amounted to 0.5 h. The molecule further gave a half-life in data set [1] (setting [4]) of 3.03 h.
Consider `COC(=O)c1cnn(-c2ccc3c(c2)c(C#N)nn3C(C)C)c1` [Compound 5, methyl 1-(3-cyano-1-isopropyl-1H-indazol-5-yl)-1H-pyrazole-4-carboxylate], for which, in data set [1] (setting [3]), the AUC(0-inf) amounted to 1490 ng·h/mL, the peak concentration (Cmax) was 554 ng/mL, the mean residence time MRT inf was 8.38 h and the Tmax stood at 0.25 h. In data set [1] (setting [3]), this molecule had a half-life of 7.45 h. Besides, in data set [1] (setting [4]), the AUC(0-inf) was found to be 25100 ng·h/mL, the Cmax was 6750 ng/mL, the MRT inf amounted to 3.17 h and the Tmax amounted to 1.17 h. In data set [1] (setting [4]), this molecule gave a half-life of 3.78 h.

The record behind these values is patent US20250282753A1, “COMPOUNDS USEFUL FOR REDUCING URIC ACID” (ATOM BIOSCIENCE AMERICA CORPORATION, priority 2022, published 2025).
